{"source": "patent US7781594B2", "about": "“5-(4-methanesulfonyl-phenyl)-thiazole derivatives for the treatment of acute and chronic inflammatory diseases” (Faes Farma, S.A., priority 2008, dated 2010)", "assay_type_in_all_cases": "cell-based, human", "key": {"[1]": {"test_system": "CD62L in monocytes", "assay": "Shedding of CD62L in monocytes of PBMC, flow cytometry", "conditions": "healthy volunteers; FIG. 12b", "protocol": "(§1) Direct immuno-fluorescence techniques of one colour with monoclonal antibodies phycoerythrin-labeled (PE) was used. PE is a fluorescent substance excitable with a 488 nm laser, which emits at 570 nm, and it is detectable and easily distinguishable by a flow cytometer. By using the antibody described in Table 1, a direct labelling was performed:\n(§2) PBMC labelling: the process consisted in a labelling using 96 well V bottom plates. In each well, 5×10^4 cells are located, and afterwards centrifugated at 400×g during 5 minutes. After washing-out, cells are re-suspended and 5 μl of the corresponding monoclonal antibody are added. Cells are again re-suspended and the plate is incubated in darkness, during 20 minutes, at 4° C. Subsequently, 150 μl PBS are added and two wash-outs are performed. Finally, it is re-suspended in 150 μl PBS and collected in a cytometer tube, adding PBS up to a final volume of 0.3 ml.\n(§3) For the counting, a FACSCalibur flow cytometer equipped with argon laser tuned at 488 nm was used in order to induce phycoerythrin fluorescence. The equipment, apart from the fluorescence channels, also provided information about the size (FSC) and cellular complexity (SSC).\n(§4) As negative controls, the study cells with no labelling and other irrelevant labelled with monoclonal antibodies of equal isotypes than the ones used in the study (IgG1-FITC, PE y TC, IgG2a FITC, PE, TC), were used. […]"}, "[2]": {"test_system": "CD62L in lymphocytes", "assay": "Shedding of CD62L in lymphocytes of PBMC, flow cytometry", "conditions": "healthy volunteers; 10^−6 M; p<0.05; FIG. 12a", "protocol": "as §1, §2, §3, §4"}, "[3]": {"test_system": "IL-10", "assay": "IL-10 production by PBMC from patients with rheumatoid arthritis, CBA", "protocol": "(§5) CBA protocol was followed according to the manufacturer's instructions. The election of microparticles was performed following the summary of FIG. 1.\n(§6) The acquisition on samples was performed with the BD FACS Array Bioanalyser System (FACSArray, Becton Dickinson, San José, Calif., USA) and the analysis of the results was completed with the software FCAP Array (Becton Dickinson) in a PC computer.\nBriefly, the experimental protocol consisted of a plate pre-washing out with Wash Buffer. After decantation, the mixture of capture microparticles was re-suspended in the vortex. Standards and samples were added in the adequate dilution. After permanent stirring incubation during 1 h, the PE detection reagent was added and incubated again during 2 h at room temperature. After a washing-out, the acquisition was performed in the flow cytometer.\nOn the other hand, PBMC (5×10^4 cells per well) from 8 patients with rheumatoid arthritis were cultured in duplicate in 200 μl of complete medium supplemented with the highest solvent concentration (10^−6 M), and 10^−6 M, 10^−7 M and 10^−8 M of compound 12 in the presence and absence of either LPS (10 μg/ml) or anti-CD3 (12.5 ng/ml), +anti-CD28 (⅓×10^5), during 24 hours. […]"}, "[4]": {"test_system": "TNF-alpha", "assay": "TNF-alpha production by PBMC from patients with rheumatoid arthritis, CBA", "protocol": "as §5, §6\nBriefly, the experimental protocol consisted of a plate pre-washing out with Wash Buffer. After decantation, the mixture of capture microparticles was re-suspended in the vortex. Standards and samples were added in the adequate dilution. […]\nIn another experiment, PBMC (5×10^4 cells per well) from 7 patients with rheumatoid arthritis were cultured in duplicate in 200 μl of complete medium supplemented with the highest solvent (10^−6 M), and 10^−6 M, 10^−7 M and 10^−8 M compound 12 and in the presence and absence of either LPS (10 μg/ml), or anti-CD3 (12.5 ng/ml) (Orthoclone OKT3, Orthopharmaceutical Corporation, Raritan N.J., USA)+anti-CD28 (⅓×10^5) (Clon 15E8, Menarini, Madrid, Spain), during 24 hours. Culture supernatants were frozen at −20° C. and the concentration of TNF-alpha quantified by BD FACS Array Bioanalyser by using CBA Flex Set (Becton Dickinson), specific for determining the concentration of that cytokine, following the manufacturer instructions."}, "[5]": {"test_system": "PBMC from healthy volunteers", "assay": "Proliferative response of PBMC, 3H-thymidine incorporation", "conditions": "absence or presence of PHA, PHA plus IL-2, or anti-CD3 + anti-CD28, 4 days, FIGS. 11a and 11b", "protocol": "Faced against a mitogen stimulation, lymphocytes suffer a blastogenesis and cellular differentiation process. The method used to quantify the cellular proliferation was the assay of the incorporation of ^3[H]-Thymidine to the DNA de novo synthesized, and the emission of betha-radiation from the cellular cultures dried extracts (to which the tritiated base was added) was detected before its ending and harvesting. In the different experiments performed to study the proliferation, the purified cellular preparations were incubated in 96 microwells plain bottom plates at concentrations of 5×10^4 cells/well (200 μl final volume), in the presence of different concentrations of various mitogens with triplicate repetitions and along 4 days of culture.\nThe response to a specific stimuli depended on the density and cell type studied, as well as of the culture time and of the mitogenic agent concentration. […]\nPBMC was cultured during 4 days (50,000 cells per well) at 37° C. and 5% CO2 atmosphere (Cell incubator HERA Cell 150, Thermoscientific, Thermoelectron, 63505 Lagenselbold, GE) in complete culture medium. […] The DNA-incorporated radioactive was quantified by using a betha particles counter Wallac Oy."}}, "data": [{"compound": "Cc1nc(OC2CCCC2)c(-c2ccc(S(C)(=O)=O)cc2)s1", "note": "[Compound 12, 4-cyclopentyloxy-5-(4-methylsulfonyl-phenyl)-2-methyl-thiazole]", "values": [{"measurement": "Effect on CD62L shedding in monocytes", "setting": "[1]", "result": "significant differences were not observed"}, {"measurement": "Effect on CD62L shedding in lymphocytes", "setting": "[2]", "result": "increases significantly"}, {"measurement": "Effect on IL-10 production by PBMC, spontaneous or anti-CD3 and anti-CD28 stimulated", "setting": "[3]", "result": "no significant effects"}, {"measurement": "Effect on IL-10 production after stimulation with LPS", "setting": "[3]; 10^−8, p<0.05, FIG. 10", "result": "significantly inhibited"}, {"measurement": "Effect on TNF-alpha production by PBMC, spontaneous or anti-CD3 and anti-CD28 stimulated", "setting": "[4]", "result": "neither inhibited the spontaneous TNF-alpha production nor the one obtained after stimulation with monoclonal antibodies anti-CD3 and anti-CD28"}, {"measurement": "Effect on TNF-alpha production in LPS-stimulated PBMC", "setting": "[4]; 10^−6 M, p<0.05, FIG. 4", "result": "significantly inhibited"}, {"measurement": "Effect on the proliferative response of PBMC", "setting": "[5]", "result": "did not significantly modify"}]}]}
